These results are taken from patent US20190144499A1, “PHENYL P[…], AND MANUFACTURING METHOD AND PHARMACEUTICAL APPLICATION THEREOF” (Jiangsu Hengrui Medicine Co., Ltd., priority 2016, published 2019).

As usually defined, the EC50 is the concentration at which the effect is half-maximal. Broadly, the AUC is the area under the concentration-time curve, a measure of exposure. For orientation: clearance means the volume of plasma or blood freed of the substance per unit of time. The term MRT denotes the average time that molecules of a dose stay in the body.

In series [1] the target is T1, human KOR (h-KOR) receptors (Homo sapiens, UniProt P41145).
T1 construct: expressed in transfected cells
The series is described as follows: h-KOR agonist activity test (cAMP/CRE-luciferase reporter in HEK293/h-KOR/CRE cells). The class given is cell-based. Conditions: Forskolin, 4 hours, luciferase chemiluminescence, read-out: EC50 on agonizing h-KOR receptor and affecting cAMP levels. From the text: The objective of this experiment is to determine the agonistic effect of the compounds of the present invention on human KOR (h-KOR) receptors, and to evaluate the in vitro activity of the compounds according to the values of EC50.
The compounds of the present invention can activate h-KOR receptor, thereby reducing intracellular cAMP levels. The second messenger cAMP enters the nucleus and binds to the CRE of the DNA, thereby initiating the expression of the downstream luciferase. Luciferase reacts with its substrate to emit fluorescence, and the measured fluorescence signals reflect the agonistic activity of the compounds.
The activity of the test example compounds on agonizing h-KOR and affecting downstream cAMP levels was tested by the following method.
KOR/pcDNA3.1 (+) and CRE/pGL4.29 were transferred into HEK293 cells. G418 and hygromycin were added into the culture medium, and HEK293/KOR/CRE monoclonal cell lines were screened in a 96-well cell culture plate.
HEK293/h-KOR/CRE monoclonal cells were cultured in a DMEM/high glucose medium (10% FBS, 1 mg/ml G418, 200 μg/ml hygromycin, mixed uniformly), and passaged every 3 days. On the day of the experiment, a cell suspension was prepared with a fresh cell medium, added to a 96 well plate (BD, #356692) with 20,000 cells/well, and incubated in 5% CO2 at 37° C. On the second day, the compound was dissolved in pure DMSO at a concentration of 20 mM, then formulated with DMSO to a first concentration of 200 nM and diluted in 3 fold concentration gradient to 8 concentrations. 90 μl of DMSO were added to blank and control wells. The compound solution was diluted 20-fold with DMEM/hyperglucose (SH30243.01B, Hyclone) medium containing […]. The cell culture plates inoculated on the first day were taken out, and 10 μl of the diluted drug or the control (0.5% DMSO) was added to each well. The plate was gently shaken, and placed at 37° C. for 4 hours. In a 96-well cell culture plate, 100 μl of luciferase assay solution (Promega, # E6110) was added to each well. The plate was placed for 5 minutes at room temperature. The chemiluminescence value was measured using Victor 3.0. The EC50 values of the compounds were calculated using Graphpad Prism software based on each concentration of the compound and the corresponding signal value.
The activity of the compounds of the present invention on agonizing h-KOR and affecting downstream cAMP levels was determined by the above test, and the EC50 values are shown in Table 1.1.
(In a reporter assay the amount or activity of a reporter protein is the signal.)

Series [2] in a line: Pharmacokinetics assay in rats after intravenous administration. The class given is in vivo. To be noted: both sexes, Sprague-Dawley, rat, plasma, SD rats, 1 mg/kg; for Vd: read-out: Apparent Distribution Volume Vz; for AUC: read-out: Area Under Curve AUC; for clearance: read-out: Clearance CL; for half-life: read-out: Half-Life t1/2 (converted); for MRT: read-out: Mean Residence Time MRT. The protocol: Rats were used as test animals. The drug concentration in plasma at different time points was determined by LC/MS/MS after intravenous administration of the compounds of Examples 2, 5 and 8 to the rats. The pharmacokinetic behavior of the compounds of the present invention was studied and evaluated in SD rats.
12 Sprague-Dawley (SD) rats, half male and half female, were purchased from SINO-BRITISH SIPPR/BK LAB. ANIMAL LTD., CO, with License No.: SOCK (Shanghai) 2008-0016.
The appropriate amount of the test compounds was weighed, and added with 5% 5% DMSO+5% PEG400+90% normal saline successively.
After an overnight fast, 12 SD rats, half male and half female, were divided into 3 groups equally, and administered intravenously at a dose of an administration volume of 5 mL/kg.
In the venous group, blood (0.2 mL) was taken from the orbital sinus before administration and 0.25, 0.5, 1.0, 2.0, 4.0, 8.0, 11.0 and 24.0 hours after administration. The samples were stored in heparinized tubes, and centrifuged for 10 minutes at 3,500 rpm to separate the blood plasma. The plasma samples were stored at −20° C.
The concentration of the test compounds in SD rat plasma after intravenous administration was determined by LC-MS/MS.

The structures appear in SMILES notation. Where a SMILES comes first, the peptide text is derived from it. [ ]: non-standard residue; d: D form. The star is where a group is joined. Piperidin1yl(4-NH2,4-COOH) = NC1(C(=O)O)CCN(*)CC1; N(Indan-2-yl)Gly = O=C(O)CNC1Cc2ccccc2C1; Gly(NCH2CH2Ph) = O=C(O)CNCCc1ccccc1; Morpholide = C1CN(*)CCO1

T1 sequence (P41145 whole entry): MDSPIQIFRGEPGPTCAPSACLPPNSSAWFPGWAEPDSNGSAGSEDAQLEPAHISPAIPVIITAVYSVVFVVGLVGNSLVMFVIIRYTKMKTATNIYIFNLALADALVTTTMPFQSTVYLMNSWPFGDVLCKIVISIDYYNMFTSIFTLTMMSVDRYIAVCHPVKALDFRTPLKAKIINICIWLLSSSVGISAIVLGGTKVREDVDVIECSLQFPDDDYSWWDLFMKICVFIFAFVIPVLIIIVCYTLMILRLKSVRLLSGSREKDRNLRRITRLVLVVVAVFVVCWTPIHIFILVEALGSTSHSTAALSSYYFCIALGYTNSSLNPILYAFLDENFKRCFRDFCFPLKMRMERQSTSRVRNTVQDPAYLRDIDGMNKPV

For `CC(C)C[C@@H](NC(=O)[C@@H](Cc1ccccc1)NC(=O)CNCC1(c2ccccc2)CC1)C(=O)N[C@H](CCCCN)C(=O)N1CCC(N)(C(=O)O)CC1` [Example 1, 4-amino-1-((6R,9R,12R)-12-(4-aminobutyl)-6-benzyl-9-isobutyl-4,7,10-trioxo-1-(1-phenylcyclopropyl)-2,5,8,11-tetraazatridecan-13-oyl)piperidine-4-carboxylic acid], the EC50 in series [1] came to 0.056 nM.
Turning to `CC(C)C[C@@H](NC(=O)[C@@H](Cc1ccccc1)NC(=O)CNC[C@@H](C)c1ccccc1)C(=O)N[C@H](CCCCN)C(=O)N1CCC(N)(C(=O)O)CC1` [Example 2, 4-amino-1-((2R,5R,8R,14S)-2-(4-aminobutyl)-8-benzyl-5-isobutyl-4,7,10-trioxo-14-phenyl-3,6,9,12-tetraazapentadecan-1-oyl)piperidine-4-carboxylic acid], the EC50 in series [1] was 0.015 nM. For the same molecule, in series [2], the Vd came out at 0.28 ± 0.046 L/kg, the AUC stood at 2560 ± 427 ng·h/mL, the clearance came out at 6.66 ± 1.28 mL/min/kg and the half-life is 29.3 ± 1.56 min. Further, the MRT in series [2] is 31.5 ± 5.94 min.
As to `CC(C)C[C@@H](NC(=O)[C@@H](Cc1ccccc1)NC(=O)CNCC(C)(C)c1ccccc1)C(=O)N[C@H](CCCCN)C(=O)N1CCC(N)(C(=O)O)CC1` [Example 3, 4-amino-1-((2R,5R,8R)-2-(4-aminobutyl)-8-benzyl-5-isobutyl-14-methyl-4,7,10-trioxo-14-phenyl-3,6,9,12-tetraazapentadecan-1-oyl)piperidine-4-carboxylic Acid], the EC50 in series [1] came out at 0.004 nM.
The same measure, in the same setting: the same measure for `CC(C)C[C@@H](NC(=O)[C@@H](Cc1ccccc1)NC(=O)CNC[C@@H](c1ccccc1)C(C)C)C(=O)N[C@H](CCCCN)C(=O)N1CCC(N)(C(=O)O)CC1` [Example 4, 4-amino-1-((2R,5R,8R,14R)-2-(4-aminobutyl)-8-benzyl-5-isobutyl-15-methyl-4,7,10-trioxo-14-phenyl-3,6,9,12-tetraazahexadecan-1-oyl)piperidine-4-carboxylic Acid]: 0.009 nM; for `CC(C)C[C@@H](NC(=O)[C@@H](Cc1ccccc1)NC(=O)CN[C@H]1C[C@@H]1c1ccccc1)C(=O)N[C@H](CCCCN)C(=O)N1CCOCC1` [Example 6, (R)—N—((R)-6-amino-1-morpholino-1-oxohexan-2-yl)-4-methyl-2-((R)-3-phenyl-2-(2-(((1S,2R)-2-phenylcyclopropyl)amino)acetamido)propanamido)pentanamide]: 0.079 nM.
Take `CCC(CNCC(=O)N[C@H](Cc1ccccc1)C(=O)N[C@H](CC(C)C)C(=O)N[C@H](CCCCN)C(=O)N1CCC(N)(C(=O)O)CC1)c1ccccc1` (stereo partly drawn) [Example 7, 4-amino-1-((2R,5R,8R)-2-(4-aminobutyl)-8-benzyl-5-isobutyl-4,7,10-trioxo-14-phenyl-3,6,9,12-tetraazahexadecan-1-oyl)piperidine-4-carboxylic Acid]: the 50% effective concentration (EC50) in series [1] stood at 0.003 nM.
Consider `CC(C)C[C@@H](NC(=O)[C@@H](Cc1ccccc1)NC(=O)CNCCc1ccccc1)C(=O)N[C@H](CCCCN)C(=O)N1CCC(N)(C(=O)O)CC1` [Example 8, 4-amino-1-((2R,5R,8R)-2-(4-aminobutyl)-8-benzyl-5-isobutyl-4,7,10-trioxo-14-phenyl-3,6,9,12-tetraazatetradecan-1-oyl)piperidine-4-carboxylic Acid] (H-[Gly(NCH2CH2Ph)][dF][dL][dK]-{Piperidin1yl(4-NH2,4-COOH)}), for which the EC50 in series [1] was 0.013 nM. Also, in series [2], the Vd stood at 0.499 ± 0.111 L/kg, the AUC came out at 1520 ± 436 ng·h/mL, the clearance came out at 11.6 ± 3.3 mL/min/kg and the half-life was 30.1 ± 2.28 min. Moreover, the MRT in series [2] stood at 34 ± 6.72 min.
Regarding `CC(C)C[C@@H](NC(=O)[C@@H](Cc1ccccc1)NC(=O)CNC1Cc2ccccc2C1)C(=O)N[C@H](CCCCN)C(=O)N1CCOCC1` [Example 10, (R)—N—((R)-6-amino-1-morpholino-1-oxohexan-2-yl)-2-((R)-2-(2-((2,3-dihydro-1H-inden-2-yl)amino)acetamido)-3-phenylpropanamido)-4-methylpentanamide] (H-[N(Indan-2-yl)Gly][dF][dL][dK]-Morpholide), the EC50 in series [1] is more than 1 nM.
